{"source": "patent US20250206761A1", "about": "“HALOINDOLE MACROCYCLIC COMPOUNDS FOR THE TREATMENT OF CANCER” (Hoffmann-La Roche Inc., priority 2022, published 2025)", "key": {"[1]": {"system": "NCI-H358 (ATCC-CRL5807) cells", "test": "Cell viability assay, G12C (NCI-H358)", "assay_type": "cell-based, human", "settings": "Homo sapiens; KRAS cell viability, NCI-H358, 72 hrs, Cell Counting Kit-8", "description": "(§1) The purpose of this cellular assay was to determine the effects of test compounds on the proliferation of human cancer cell lines NCI-H358 (ATCC-CRL5807) cells, AGS (ATCC-CRL-1739) cells, SW620 (ATCC-CCL-227) over a 3-day treatment period by quantifying the amount of NADPH present at endpoint using Cell Counting Kit-8.\n(§2) Cells were seeded at 5,000 cells/well (NCI-H358), 2,000 cells/well (AGS) 2,000 cells/well (SW620) in 96-well assay plates (Corning-3699) and incubated overnight. On the day of the assay, diluted compounds were then added in a final concentration of 0.5% DMSO. After 72 hrs incubation, a tenth of the volume of cell counting kit 8 (Dnjindo-CK04) was added into each well. Read the signal (OD450 minus OD650) using EnVision after 2 hrs incubation. IC50 was determined by fitting a 4-parameter sigmoidal concentration response model."}, "[2]": {"system": "AGS (ATCC-CRL-1739) cells", "test": "Cell viability assay, G12D (AGS)", "assay_type": "cell-based, human", "settings": "Homo sapiens, KRAS cell viability, 72 hrs, Cell Counting Kit-8", "description": "as §1, §2"}, "[3]": {"system": "SW620 (ATCC-CCL-227)", "test": "Cell viability assay, G12V (SW620)", "assay_type": "cell-based, human", "settings": "Homo sapiens, SW-620; KRAS cell viability, SW620, 72 hrs, Cell Counting Kit-8", "description": "as §1, §2"}, "[4]": {"biological_target": "KRAS G12C-BRAF complex (Homo sapiens (Human), UniProt P01116+P62937, G12C)", "sequence (P01116-2 other isoform, or with tags, fused parts or gaps G12C)": "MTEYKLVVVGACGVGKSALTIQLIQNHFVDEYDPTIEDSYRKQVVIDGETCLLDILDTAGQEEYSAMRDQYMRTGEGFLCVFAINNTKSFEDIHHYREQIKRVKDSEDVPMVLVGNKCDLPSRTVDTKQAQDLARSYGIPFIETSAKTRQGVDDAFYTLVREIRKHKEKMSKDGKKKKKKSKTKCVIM", "sequence (P62937 whole entry)": "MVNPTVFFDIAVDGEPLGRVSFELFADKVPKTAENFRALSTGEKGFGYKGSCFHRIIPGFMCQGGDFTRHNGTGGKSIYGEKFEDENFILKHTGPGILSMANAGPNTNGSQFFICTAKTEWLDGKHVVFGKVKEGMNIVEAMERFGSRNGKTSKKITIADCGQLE", "test": "KRAS-BRAF with CYPA (500 nM) interaction assay (TR-FRET), G12C", "assay_type": "biochemical", "description": "(§3) In this example, TR-FRET was also used to measure the compound or compound-CYPA dependent disruption of the KRAS G12C-BRAF complex. This protocol was also used to measure disruption of KRAS G12D or KRAS G12V binding to BRAF by a compound of the invention, respectively. In assay buffer containing 25 mM HEPES PH=7.4 (4-(2-hydroxyethyl)-1-piperazineethanesulfonic acid, Thermo, 15630080), 0.002% Tween20, 0.1% BSA, 100 mM NaCl, 5 mM MgCl2, 10 μM GMPPNP (Guanosine 5′-[β,γ-imido]triphosphate trisodium salt hydrate, Sigma, G0635), […] 384-well assay plate at final concentrations of 50 nM, 6.25 nM and 1 nM, respectively. Compound was present in plate wells as a 16-point 3-fold dilution series starting at a final concentration of 10 μM and incubated for 3 hours. A mixture of MAb Anti-6His-XL665 (Cisbio, 61HISXLB) and Mab anti-GST-TB cryptate (Cisbio, 61GSTTLB) was then added at a final concentration of 6.67 nM and 0.21 nM, respectively, and the plate was incubated for an additional 1.5 hours. TR-FRET signal was read on a PHERstar FSX microplate reader (Ex320 nm, Em 665/615 nm). Compounds that facilitate disruption of the KRAS-BRAF complex were identified as those eliciting a decrease in the TR-FRET ratio relative to DMSO control wells."}, "[5]": {"biological_target": "KRAS G12D binding to BRAF (Homo sapiens (Human), UniProt P01116+P62937, G12D)", "sequence (P01116-2 other isoform, or with tags, fused parts or gaps G12D)": "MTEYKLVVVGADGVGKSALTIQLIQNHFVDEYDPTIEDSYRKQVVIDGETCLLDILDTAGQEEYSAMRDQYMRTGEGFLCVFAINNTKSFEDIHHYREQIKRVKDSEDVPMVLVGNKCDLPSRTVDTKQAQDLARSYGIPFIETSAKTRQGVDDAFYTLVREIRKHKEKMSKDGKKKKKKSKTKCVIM", "sequence (P62937 whole entry)": "as the sequence (P62937 whole entry) above", "test": "KRAS-BRAF with CYPA (500 nM) interaction assay (TR-FRET), G12D", "assay_type": "biochemical", "description": "as §3"}, "[6]": {"biological_target": "KRAS G12V binding to BRAF (Homo sapiens (Human), UniProt P01116+P62937, G12V)", "sequence (P01116-2 other isoform, or with tags, fused parts or gaps G12V)": "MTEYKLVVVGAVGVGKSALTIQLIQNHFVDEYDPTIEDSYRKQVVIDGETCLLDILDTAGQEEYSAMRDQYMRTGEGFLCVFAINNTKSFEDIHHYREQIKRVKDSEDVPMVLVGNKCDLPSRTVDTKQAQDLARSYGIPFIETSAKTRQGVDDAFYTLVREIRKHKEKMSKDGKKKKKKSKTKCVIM", "sequence (P62937 whole entry)": "as the sequence (P62937 whole entry) above", "test": "KRAS-BRAF with CYPA (500 nM) interaction assay (TR-FRET), G12V", "assay_type": "biochemical", "description": "In this example, TR-FRET was also used to measure the compound or compound-CYPA dependent disruption of the KRAS G12C-BRAF complex. This protocol was also used to measure disruption of KRAS G12D or KRAS G12V binding to BRAF by a compound of the invention, respectively. In assay buffer containing 25 mM HEPES PH=7.4 (4-(2-hydroxyethyl)-1-piperazineethanesulfonic acid, Thermo, 15630080), 0.002% Tween20, 0.1% BSA, 100 mM NaCl, 5 mM MgCl2, 10 μM GMPPNP (Guanosine 5′-[β,γ-imido]triphosphate trisodium salt hydrate, Sigma, G0635), […], GMPPNP loaded 6His-KRAS proteins, and […], 6.25 nM and 1 nM, respectively. Compound was present in plate wells as a 16-point 3-fold dilution series starting at a final concentration of 10 μM and incubated for 3 hours. A mixture of MAb Anti-6His-XL665 (Cisbio, 61HISXLB) and Mab anti-GST-TB cryptate (Cisbio, 61GSTTLB) was then added at a final concentration of 6.67 nM and 0.21 nM, respectively, and the plate was incubated for an additional 1.5 hours. TR-FRET signal was read on a PHERstar FSX microplate reader (Ex320 nm, Em 665/615 nm). Compounds that facilitate disruption of the KRAS-BRAF complex were identified as those eliciting a decrease in the TR-FRET ratio relative to DMSO control wells."}, "[7]": {"system": "phosphorylation of ERK, KRAS G12C in NCJ-H358 cells", "test": "pERK inhibition assay, KRAS G12C", "assay_type": "cell-based, human", "settings": "Homo sapiens, 4 hours", "description": "(§4) This assay is to measure the ability of test compounds in inhibiting the phosphorylation of ERK, the downstream signaling of KRAS G12C in NCJ-H358 cells, KRAS G12D in AGS cells, and KRAS G12V in SW620. NCJ-H358 (ATCC-CRL5807) cells, AGS (ATCC-CRL-1739) cells, SW620 (ATCC-CCL-227) cells were all grown and maintained using RPMI-1640 medium (Thermo Fisher Scientific) with 10% fetal bovine serum and 1% penicillin/streptomycin. On the day prior to compound addition, cells were plated in tissue culture-treated 96 well plates (Corning-3699) at a density of 30,000 cell/well, 20,000 cell/well, 30,000 cell/well for NCJ-H358, AGS and SW620 respectively, and allowed for attachment overnight. Diluted compounds were then added in a final concentration of 0.5% DMSO. After 4 hours of incubation, the medium was removed, 100 μL of 4% formaldehyde was added, and the assay plates were incubated at room temperature for 20 minutes. The plates were then washed once with phosphate buffered saline (PBS), and permeabilized with 100 μL of chilled methanol for 10 minutes. Non-specific antibody binding to the plates was blocked using 50 μL 1×BSA blocking buffer (Thermo-37520, 10-fold dilution by Phosphate-Buffered Saline Tween (PBST) for at least 1 hour at room temperature.\n(§5) The amount of phosphor-ERK was determined using an antibody specific for phosphorylated form of ERK. Primary antibody (pERK, CST-4370, Cell Signaling Technology) was diluted 1:300 in blocking buffer, with 50 μL aliquoted to each well, and incubated overnight at 4′° C. Cells was washed five times for 5 minutes with PBST. Secondary antibody ([…] anti-rabbit IgG, CST-7074, Cell Signaling Technology) was diluted 1:1000 in blocking buffer, and 50 μL was added to each well and incubated 1-2 hrs at room temperature. Cells was washed 5 times for 5 minutes with PBST, 100 μL TMB ELISA substrate (abcam-ab171523) were added and gently shake for 20 minutes. 50 μL stop solution (abcam-ab171529) were added, and then read the signal (OD450) by EnVision.\n(§6) IC50 was determined by fitting a 4-parameter sigmoidal concentration response model."}, "[8]": {"system": "phosphorylation of ERK, KRAS G12V in SW620", "test": "pERK inhibition assay, KRAS G12V", "assay_type": "cell-based, human", "settings": "Homo sapiens, SW-620, SW620, 4 hours", "description": "as §4, §5, §6"}}, "data": [{"smiles": "CCn1c(-c2cc(N3CCN(CC(F)(F)F)CC3)cnc2[C@H](C)OC)c2c3cc(c(F)cc31)-c1csc(n1)C[C@H](NC(=O)[C@H](C(C)C)N1CC[C@@]3(CCN(C(=O)[C@H](F)Cl)C3)C1=O)C(=O)N1CCC[C@H](N1)C(=O)OCC(C)(C)C2", "note": "(atropisomer, axis not shown; (M)) [Example 35, (2S)-2-[(5R)-7-[(2R)-2-chloro-2-fluoro-acetyl]-1-oxo-2,7-diazaspiro[4.4]nonan-2-yl]-N-[(7S,13S)-21-ethyl-24-fluoro-(20M)-20-[2-[(1S)-1-methoxyethyl]-5-[4-(2,2,2-trifluoroethyl)piperazin-1-yl]-3-pyridyl]-17,17-dimethyl-8,14-dioxo-15-oxa-4-thia-9,21,27,28-tetrazapentacyclo[17.5.2.1^2,5.1^9,13.0^22,26]octacosa-1(25),2,5(28),19,22(26),23-hexaen-7-yl]-3-methyl-butanamide]", "values": [{"measurement": "IC50", "setting": "[1]", "value": "< 1", "unit": "nM"}, {"measurement": "IC50", "setting": "[2]", "value": 69, "unit": "nM"}, {"measurement": "IC50", "setting": "[3]", "value": 3530, "unit": "nM"}, {"measurement": "IC50", "setting": "[4]", "value": 23, "unit": "nM"}, {"measurement": "IC50", "setting": "[5]", "value": 3220, "unit": "nM"}, {"measurement": "IC50", "setting": "[6]", "value": "> 10000", "unit": "nM"}, {"measurement": "IC50", "setting": "[7]", "value": 3, "unit": "nM"}, {"measurement": "IC50", "setting": "[8]", "value": 50, "unit": "nM"}]}, {"smiles": "CCn1c(-c2cc(N3CCN(C)CC3)cnc2[C@H](C)OC)c2c3cc(c(F)cc31)-c1csc(n1)C[C@H](NC(=O)[C@H](C(C)C)N(C)C(=O)C1(F)CCN(C(=O)[C@H](F)Cl)CC1)C(=O)N1CCC[C@H](N1)C(=O)OCC(C)(C)C2", "note": "(atropisomer, axis not shown; (M)) [Example 34, 1-[(2R)-2-chloro-2-fluoro-acetyl]-N-[(1S)-1-[[(7S,13S)-21-ethyl-24-fluoro-(20M)-20-[2-[(1S)-1-methoxyethyl]-5-(4-methylpiperazin-1-yl)-3-pyridyl]-17,17-dimethyl-8,14-dioxo-15-oxa-4-thia-9,21,27,28-tetrazapentacyclo[17.5.2.1^2,5.1^9,13.0^22,26]octacosa-1(25),2,5(28),19,22(26),23-hexaen-7-yl]carbamoyl]-2-methyl-propyl]-4-fluoro-N-methyl-piperidine-4-carboxamide]", "values": [{"measurement": "IC50", "setting": "[1]", "value": "< 1", "unit": "nM"}, {"measurement": "IC50", "setting": "[2]", "value": 43, "unit": "nM"}, {"measurement": "IC50", "setting": "[3]", "value": 40, "unit": "nM"}, {"measurement": "IC50", "setting": "[4]", "value": 47, "unit": "nM"}, {"measurement": "IC50", "setting": "[5]", "value": 909, "unit": "nM"}, {"measurement": "IC50", "setting": "[6]", "value": 724, "unit": "nM"}, {"measurement": "IC50", "setting": "[7]", "value": 2, "unit": "nM"}, {"measurement": "IC50", "setting": "[8]", "value": 12, "unit": "nM"}]}, {"smiles": "CO[C@@H](C)c1ncc(N2CCN(CC(F)(F)F)CC2)cc1-c1c2c3cc(c(F)cc3n1CC(F)(F)F)-c1csc(n1)C[C@H](NC(=O)[C@H](C(C)C)N1CC[C@]3(CCN(C(=O)[C@H](F)Cl)C3)C1=O)C(=O)N1CCC[C@H](N1)C(=O)OCC(C)(C)C2", "note": "(atropisomer, axis not shown; (M)) [Example 45, (2S)-2-[(5S)-7-[(2R)-2-chloro-2-fluoro-acetyl]-1-oxo-2,7-diazaspiro[4.4]nonan-2-yl]-N-[(7S,13S)-24-fluoro-(20M)-20-[2-[(1S)-1-methoxyethyl]-5-[4-(2,2,2-trifluoroethyl)piperazin-1-yl]-3-pyridyl]-17,17-dimethyl-8,14-dioxo-21-(2,2,2-trifluoroethyl)-15-oxa-4-thia-9,21,27,28-tetrazapentacyclo[17.5.2.1^2,5.1^9,13.0^22,26]octacosa-1(25),2,5(28),19,22(26),23-hexaen-7-yl]-3-methyl-butanamide]", "values": [{"measurement": "IC50", "setting": "[1]", "value": "< 1", "unit": "nM"}, {"measurement": "IC50", "setting": "[2]", "value": 135, "unit": "nM"}, {"measurement": "IC50", "setting": "[3]", "value": 121, "unit": "nM"}, {"measurement": "IC50", "setting": "[4]", "value": 10, "unit": "nM"}, {"measurement": "IC50", "setting": "[5]", "value": 4970, "unit": "nM"}, {"measurement": "IC50", "setting": "[6]", "value": 299, "unit": "nM"}, {"measurement": "IC50", "setting": "[7]", "value": 7, "unit": "nM"}, {"measurement": "IC50", "setting": "[8]", "value": 20, "unit": "nM"}]}, {"smiles": "CCn1c(-c2cc(N3CCN(C)CC3)cnc2[C@H](C)OC)c2c3cc(c(F)cc31)-c1csc(n1)C[C@H](NC(=O)[C@@H](COC1CN(C(=O)[C@H](F)Cl)C1)C(C)C)C(=O)N1CCC[C@H](N1)C(=O)OCC(C)(C)C2", "note": "(atropisomer, axis not shown; (M)) [Example 40, (2R)-2-[[1-[(2R)-2-chloro-2-fluoro-acetyl]azetidin-3-yl]oxymethyl]-N-[(7S,13S)-21-ethyl-24-fluoro-(20M)-20-[2-[(1S)-1-methoxyethyl]-5-(4-methylpiperazin-1-yl)-3-pyridyl]-17,17-dimethyl-8,14-dioxo-15-oxa-4-thia-9,21,27,28-tetrazapentacyclo[17.5.2.1^2,5.1^9,13.0^22,26]octacosa-1(25),2,5(28),19,22(26),23-hexaen-7-yl]-3-methyl-butanamide]", "values": [{"measurement": "IC50", "setting": "[1]", "value": "< 1", "unit": "nM"}, {"measurement": "IC50", "setting": "[2]", "value": 1110, "unit": "nM"}, {"measurement": "IC50", "setting": "[3]", "value": 63, "unit": "nM"}, {"measurement": "IC50", "setting": "[4]", "value": 108, "unit": "nM"}, {"measurement": "IC50", "setting": "[5]", "value": "> 10000", "unit": "nM"}, {"measurement": "IC50", "setting": "[6]", "value": "> 10000", "unit": "nM"}, {"measurement": "IC50", "setting": "[7]", "value": 10, "unit": "nM"}, {"measurement": "IC50", "setting": "[8]", "value": 23, "unit": "nM"}]}]}
